From US8987273B2, “Substituted imidazo[1,2-B]pyridazines” (Bayer Intellectual Property GmbH, priority 2010, dated 2015)
Structures can show the parent of a compound that is named as a salt.

Assays:
[1] = biological target: His-tagged human recombinant kinase full-length Akt2 (Homo sapiens (Human), UniProt P31751); assay: Akt2 kinase assay (TR-FRET); format: biochemical; conditions: 10 μM ATP; median
Description: Akt2 inhibitory activity of compounds of the present invention was quantified employing the Akt2 TR-FRET assay as described in the following paragraphs.
(§1) His-tagged human recombinant kinase full-length Akt2 expressed in insect cells and activated by PDK1 was purchased form Invitrogen (part number PV 3975). As substrate for the kinase reaction the biotinylated peptide biotin-Ahx-[…] (C-terminus in amide form) was used which can be purchased e.g. from the company Biosynthan GmbH (Berlin-Buch, Germany).
(§2) For the assay 50 nl of a 100 fold concentrated solution of the test compound in DMSO was pipetted into a black low volume 384 well microtiter plate (Greiner Bio-One, Frickenhausen, Germany), 2 μl of a solution of Akt2 in assay buffer [50 mM TRIS/HCl pH 7.5, 5 mM MgCl2, 1 mM dithiothreitol, 0.02% (v/v) Triton X-100 (Sigma)] were added and the mixture was incubated for 15 min at 22° C. to allow pre-binding of the test compounds to the enzyme before the start of the kinase reaction. Then the kinase reaction was started by the addition of 3 μl of a solution of adenosine-tri-phosphate (ATP, 16.7 μM=>final conc. in the 5 μl assay volume is 10 μM) and substrate (1.67 μM=>final conc. in the 5 μl assay volume is 1 μM) in assay buffer and the resulting mixture was incubated for a reaction time of 60 min at 22° C. The concentration of Akt2 in the assay was adjusted depending of the activity of the enzyme lot and was chosen appropriate to have the assay in the linear range, typical enzyme concentrations were in the range of about 0.2 ng/μl (final conc. in the 5 μl assay volume).
(§3) The reaction was stopped by the addition of 5 μl of a solution of HTRF detection reagents (200 nM streptavidine-XL665 [Cisbio] and 1.5 nM anti-phosho-Serine antibody [Millipore, cat. #35-001] and 0.75 nM LANCE Eu-W 1024 labeled anti-mouse IgG antibody [Perkin Elmer]) in an aqueous EDTA-solution (100 mM EDTA, 0.1%/w/v\ bovine serum albumin in 50 mM HEPES/NaOH pH 7.5).
(§4) The resulting mixture was incubated 1 h at 22° C. to allow the binding of the biotinylated phosphorylated peptide to the streptavidine-XL665 and the antibodies. Subsequently the amount of phosphorylated substrate was evaluated by measurement of the resonance energy transfer from the anti-mouse-IgG-Eu-Chelate to the streptavidine-XL665. Therefore, the fluorescence emissions at 620 nm and 665 nm after excitation at 350 nm was measured in a TR-FRET reader, e.g. a Rubystar (BMG Labtechnologies, Offenburg, Germany) or a Viewlux (Perkin-Elmer). The ratio of the emissions at 665 nm and at […] was taken as the measure for the amount of phosphorylated substrate. The data were normalised (enzyme reaction without inhibitor=0% inhibition, all other assay components but no enzyme=100% inhibition).

[2] = biological target: His-tagged human recombinant kinase full-length Akt1 (Homo sapiens (Human), UniProt P31749); assay: Akt1 kinase assay (TR-FRET); format: biochemical; conditions: 10 μM ATP; median
Description: as §1, with “Akt1 inhibitory activity of compounds of the present invention was quantified employing the Akt1 TR-FRET assay as described in the following paragraphs. His-tagged” for “His-tagged”, “Akt1” for “Akt2”, “cells” for “cells and activated by PDK1”, “3599).” for “3975).”
as §2, with “Akt1” for “Akt2”, “0.05” for “0.2”
as §3, with “0.1% (w/v)” for “0.1%/w/v\”
as §4, with “HTRF” for “TR-FRET”

KPL-4 cells = assay: Tumor cell proliferation assay (CellTiter-Glo); format: cell-based; conditions: KPL4; 72 h drug exposure
Experimental: Compounds were tested in a cell-based assay that measures the capacity of the compounds to inhibit tumour cell proliferation following a 72 h drug exposure. Cell viability is determined using CellTiter-Glow® (CTG, Promega, cat# G757112/3). The CellTiter-Glo® Luminescent Cell Viability Assay is a homogeneous method to determine the number of viable cells in culture. Detection is based on using the luciferase reaction to measure the amount of ATP from viable cells. The amount of ATP in cells correlates with cell viability. Within minutes after a loss of membrane integrity, cells lose the ability to synthesize ATP, and endogenous ATPases destroy any remaining ATP; thus the levels of ATP fall precipitously.
Cells were plated at 3000-5000 cells/well (depending on the cell lines) in 90 μL growth medium on MTPs (Corning; #3603, black plate, clear flat bottom). For each cell line assayed, cells were plated onto a separate plate for determination of […] at t=0 hour and t=72 hour time points. Following overnight incubation at 37° C., chemiluminescence values for the t=0 samples were determined after adding 10 μl medium and 100 μl CTG solution according to manufacture protocol. Plates for the t=72 hour time points were treated with compounds diluted into growth medium at ten times final concentration added in 10 μL to the cell culture plate. Cells were then incubated for 72 hours at 37° C. Chemiluminescence values for the t=72 hour samples were determined. For data analysis, briefly, data from 24 h plate where used to reflect 100% inhibition of growth (“Ci”) and DMSO control for uninhibited growth (“C0”) and analyzed using MTS software package for IC50 and Hill coefficient. Experiments were controlled using a reference compound as standard.

[3] = system: phospho-AKT at S473 in KPL4 breast tumour cell line; assay: Cellular p-AKT1/2/3-S473 assay; format: cell-based; conditions: KPL4 cells, 2 hours treatment; median; read-out: pAKT-S743 median IC50
Experimental: The molecular mechanism of action was investigated in a set of experiments to assess the inhibition of the PI3K-AKT-mTOR pathway in responsive cell lines such as KPL4 breast tumour cell line (PIK3CAH1047R, HER2O/E and hormone independent). The phospho-substrates of PI3K-AKT-mTOR axis were used as the read-outs to reflect pathway inhibition. Cells were seeded at 60-80% confluency per well in 96-well cell culture plates. After overnight incubation at 37° C. 5% CO2, cells were treated with compounds and vehicle at 37° C. for 2 hours. […] All measurements where at least done in duplicates and confirmed by independent repetition.
Alternatively pAKT-S473 was measured using the “Akt Duplex” of the MULTI-SPOT® Assay System (Fa. Meso Scale Discovery, Cat# N41100B-1) following manufacturers instructions. Each assay used 20 μg of protein extract and measured total AKT and p-AKT content simultaneously in one well. All measurements where at least done in duplicates and confirmed by independent repetition. Values for P-AKT are expressed as percentage of P-AKT level compared to total-AKT content of the extracts.

Chain of His-tagged human recombinant kinase full-length Akt1 (P31749 whole entry): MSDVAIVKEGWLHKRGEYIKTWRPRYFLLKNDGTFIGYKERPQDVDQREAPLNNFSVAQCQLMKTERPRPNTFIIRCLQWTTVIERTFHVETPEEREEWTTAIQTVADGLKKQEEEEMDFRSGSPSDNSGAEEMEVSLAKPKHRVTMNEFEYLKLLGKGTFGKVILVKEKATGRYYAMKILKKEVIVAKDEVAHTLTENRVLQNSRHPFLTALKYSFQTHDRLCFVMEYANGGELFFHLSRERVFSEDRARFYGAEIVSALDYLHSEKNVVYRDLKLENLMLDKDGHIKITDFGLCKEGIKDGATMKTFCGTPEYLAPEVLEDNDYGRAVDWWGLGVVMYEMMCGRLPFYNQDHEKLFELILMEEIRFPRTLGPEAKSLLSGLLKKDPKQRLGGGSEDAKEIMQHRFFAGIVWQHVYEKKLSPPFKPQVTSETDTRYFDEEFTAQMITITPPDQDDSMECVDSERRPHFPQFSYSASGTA
Chain of His-tagged human recombinant kinase full-length Akt2 (P31751 whole entry): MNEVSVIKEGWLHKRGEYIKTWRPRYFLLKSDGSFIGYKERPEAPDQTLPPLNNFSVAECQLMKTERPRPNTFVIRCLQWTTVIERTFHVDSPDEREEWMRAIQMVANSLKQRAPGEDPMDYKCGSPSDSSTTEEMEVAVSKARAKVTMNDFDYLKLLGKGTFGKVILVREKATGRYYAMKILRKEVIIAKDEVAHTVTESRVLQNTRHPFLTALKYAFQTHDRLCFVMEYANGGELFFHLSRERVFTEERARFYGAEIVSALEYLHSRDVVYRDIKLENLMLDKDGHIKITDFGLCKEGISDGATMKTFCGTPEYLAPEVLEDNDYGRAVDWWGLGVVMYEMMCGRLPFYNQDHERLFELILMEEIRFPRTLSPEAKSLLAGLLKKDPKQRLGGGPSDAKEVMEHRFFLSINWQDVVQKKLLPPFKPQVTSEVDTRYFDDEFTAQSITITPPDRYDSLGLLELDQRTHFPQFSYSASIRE

| Structure (SMILES) | IC50 [1] [nM] | IC50 [2] [nM] | IC50 (KPL-4 cells) [nM] | IC50 [3] [nM] |
| --- | --- | --- | --- | --- |
| Cc1cn2nc(-c3ccc(C4(N)CCC4)cc3)c(-c3ccccc3)cc2n1 [Example 1-1, 1-[4-(2-Methyl-7-phenyl-imidazo[1,2-b]pyridazin-6-yl)-phenyl]-cyclobutylamine hydrochloride] | 20000 | 17300 | 10000 | 10000 |
| NC1(c2ccc(-c3nn4c(-c5ccc(F)cc5)cnc4cc3-c3ccccc3)cc2)CCC1 [Example 4-3, 1-{4-[3-(4-Fluorophenyl)-7-phenyl-imidazo[1,2-b]pyridazin-6-yl]-phenyl}-cyclobutylamine] | 81 | 36 | 1910 |  |
| NC1(c2ccc(-c3nn4c(-c5ccn[nH]5)cnc4cc3-c3ccccc3)cc2)CCC1 [Example 4-15, 1-{4-[7-Phenyl-3-(2H-pyrazol-3-yl)-imidazo[1,2-b]pyridazin-6-yl]-phenyl}-cyclobutylamine] | 70 | 11 | 1400 |  |
| NC1(c2ccc(-c3nn4c(-c5ccc6cn[nH]c6c5)cnc4cc3-c3ccccc3)cc2)CCC1 [Example 4-16, 1-{4-[3-(1H-indazol-6-yl)-7-phenyl-imidazo[1,2-b]pyridazin-6-yl]-phenyl}-cyclobutylamine] | 22 | 11 | 5170 |  |
| COc1cncc(-c2cnc3cc(-c4ccccc4)c(-c4ccc(C5(N)CCC5)cc4)nn23)c1 [Example 4-18, 1-{4-[3-(5-Methoxypyridin-3-yl)-7-phenyl-imidazo[1,2-b]pyridazin-6-yl]-phenyl}-cyclobutylamine] | 46 | 5 | 1810 |  |
| Cc1nc2cc(-c3ccccc3)c(-c3ccc(C4(N)CCC4)cc3)nn2c1-c1cn[nH]c1 [Example 5-2, 1-{4-[2-Methyl-7-phenyl-3-(1H-pyrazol-4-yl)-imidazo[1,2-b]pyridazin-6-yl]-phenyl}-cyclobutylamine] |  | 4780 | 2750 | 10000 |
| CCc1c(C)nc2cc(-c3ccccc3)c(-c3ccc(C4(N)CCC4)cc3)nn12 [Example 13-0, 1-[4-(3-Ethyl-2-methyl-7-phenyl-imidazo[1,2-b]pyridazin-6-yl)-phenyl]-cyclobutylamine] |  |  | 2470 | 10000 |

Further compounds by falling IC50 [2], results first:

| IC50 [1] [nM] | IC50 [2] [nM] | IC50 (KPL-4 cells) [nM] | IC50 [3] [nM] | Structure (SMILES) |
| --- | --- | --- | --- | --- |
| 1730 | 441 |  |  | Cc1cnc2cc(-c3ccccc3)c(-c3ccc(C4(N)CCC4)cc3)nn12 [Example 2-0, 1-[4-(3-Methyl-7-phenyl-imidazo[1,2-b]pyridazin-6-yl)-phenyl]-cyclobutylamine] |
| 1440 | 246 | 3540 |  | NC1(c2ccc(-c3nn4ccnc4cc3-c3ccccc3)cc2)CCC1 [Example 1-0, 1-[4-(7-Phenyl-imidazo[1,2-b]pyridazin-6-yl)-phenyl]-cyclobutylamine] |
| 136 | 129 | 2030 |  | N#Cc1ccc(-c2cnc3cc(-c4ccccc4)c(-c4ccc(C5(N)CCC5)cc4)nn23)cc1 [Example 4-1, 4-{6-[4-(1-Amino-cyclobutyl)-phenyl]-7-phenyl-imidazo[1,2-b]pyridazin-3-yl}-benzonitrile] |
| 278 | 110 | 1850 |  | CS(=O)(=O)c1ccc(-c2cnc3cc(-c4ccccc4)c(-c4ccc(C5(N)CCC5)cc4)nn23)cc1 [Example 4-0, 1-{4-[3-(4-Methanesulfonylphenyl)-7-phenyl-imidazo[1,2-b]pyridazin-6-yl]-phenyl}-cyclobutylamine] |
| 277 | 44 | 6000 |  | Cc1ccc(-c2cnc3cc(-c4ccccc4)c(-c4ccc(C5(N)CCC5)cc4)nn23)cc1 [Example 4-4, 1-[4-(7-Phenyl-3-p-tolyl-imidazo[1,2-b]pyridazin-6-yl)-phenyl]-cyclobutylamine] |
| 58 | 4 | 2560 |  | COC(=O)c1cccc(-c2cnc3cc(-c4ccccc4)c(-c4ccc(C5(N)CCC5)cc4)nn23)c1 [Example 4-2, 3-{6-[4-(1-Amino-cyclobutyl)-phenyl]-7-phenyl-imidazo[1,2-b]pyridazin-3-yl}-benzoic acid methyl ester] |
